Assay results reported in patent publication EP4722219A1 (Gan & Lee Pharmaceuticals Co., Ltd., priority 2023, dated 2024).

Legend:
MCF-7 cells = test: Inhibition of cell proliferation in MCF-7 cells (CCK-8); format: cell-based; details: MCF-7 cell proliferation, 6 days treatment
Procedure: Test Example 3 Inhibitory effect of PROTAC compounds provided by the present invention on cell proliferation in MCF-7 cells
The complete culture medium required for MCF-7 cells (source ATCC) is DMEM (gibco, Product number: 11995-065) basal culture medium containing 10% fetal bovine serum. MCF-7 cells were seeded in 96-well plates at a density of 800 cells/well, and different concentrations of PROTAC compounds 1-55 provided in the examples of the present invention and positive control sample ARV-471 (source: Inokai) were prepared to treat the cells and incubated at 37 °C, 5% CO2 cell culture incubator for 6 days. According to the manufacturer's instructions, cell viability was detected using a CCK-8 kit (Beyotime, Product number: C0040). The IC50 of each PROTAC compound after treating for 6 days was calculated using GraphPadPrism software based on the inhibition rate. Table 3 Inhibition IC50 value of MCF-7 cell proliferation by PROTAC compounds of the present invention and positive control sample

T-47D cells = test: Inhibition of cell proliferation in T-47D cells (CCK-8); format: cell-based; details: 6 days treatment, CCK-8 cell viability
Procedure: Test Example 2 Inhibitory effect of PROTAC compounds provided by the present invention on cell proliferation in T-47D cells
The complete culture medium required for T-47D cells is 1640 (ATCC, Product number: A10491-01) basal culture medium containing 10% fetal bovine serum. T-47D cells were seeded in 96-well plates at a density of 3,000 cells/well, and different concentrations of PROTAC compounds 1-55 provided in the examples of the present invention and positive control sample ARV-471 (source: Inokai) were prepared to treat the cells and incubated at 37 °C, 5% CO2 cell culture incubator for 6 days. According to the manufacturer's instructions, cell viability was detected using a CCK-8 kit (Beyotime, Product number: C0040). The IC50 of each compound after treating for 6 days was calculated using GraphPadPrism software based on the inhibition rate. Table 2 Inhibition IC50 value of T-47D cell proliferation by PROTAC compounds provided by the present invention and positive control sample

Row | Molecule | IC50 (MCF-7 cells) [nM] | IC50 (T-47D cells) [nM] | IC50 (MCF-7 cells; Homo sapiens, MCF7, 144 h) [nM] | IC50 (T-47D cells; Homo sapiens, T47D, 144 h) [nM]
1 | N-((S)-2,6-dioxopiperidin-3-yl)-6'-fluoro-1-(((1 S,4R)-4-((1-(4-((1R,2S)-6-hydroxy-2-phenyl-1,2,3,4-tetrahydronaphthalen-1-yl)phenyl)piperidin-4-yl)oxy)cyclohexyl)methy l)spiro[azetidine-3,2'-chromane]-7'-carboxamide [ER-P-85] | 956 | 70.9 |  | 
2 | Cn1c(=O)n(C2CCC(=O)NC2=O)c2ccc3c(c21)C1(CCN(C2CCN(C(=O)C4CCN(c5ccc([C@@H]6c7ccc(O)cc7CC[C@@H]6c6ccccc6)cc5)CC4)CC2)CC1)CO3 (stereo partly drawn) [ER-P-77, 3-(1'-(1-(4-(((1R,2S)-6-hydroxy-2-phenyl-1,2,3,4-tetrahydronaphthalen-1-yl)phenyl)piperidine-4-carbonyl)piperidin-4-yl)-1-methyl-2-oxo-1,2-dihydro-3H,7H-spiro[benzofuro[4,5-d]imidazole-8,4'-piperidin]-3-yl)piperidine-2,6-dione] |  |  | 84.7 | 1.87
3 | O=C1CC[C@H](NC(=O)c2c(F)ccc3c2OCC32CCN(CC3CCC(OC4CCN(c5ccc([C@@H]6c7ccc(O)cc7CC[C@@H]6c6ccccc6)cc5)CC4)CC3)CC2)C(=O)N1 (some centres unmarked) [ER-P-86] | 6660 | 68.8 |  | 
4 | COc1cc2c(cc1C(=O)N[C@H]1CCC(=O)NC1=O)OCC21CCN(CC2CCC(OC3CCN(c4ccc([C@@H]5c6ccc(O)cc6CC[C@@H]5c5ccccc5)cc4)CC3)CC2)CC1 (stereo partly drawn) [ER-P-84, N-((S)-2,6-dioxopiperidin-3-yl)-1'-(((1S,4R)-4-((1-(4-((1R,2S)-6-hydroxy-2-phenyl-1,2,3,4-tetrahydronaphthalen-1-yl)phenyl)piperidin-4-yl)oxy)cyclohexyl)methyl)-5-methoxy-2H-spiro[benzofuran-3,4'-piperidine]-6-carboxamide] | 8330 | 17.7 |  | 
5 | CN(CC(=O)N1CC2(CCC3(CC2)COc2c3ccc3c2CN(C2CCC(=O)NC2=O)C3=O)C1)C1CCC2(CC1)CN(c1ccc([C@@H]3c4ccc(O)cc4CC[C@@H]3c3ccccc3)cc1)C2 (stereo partly drawn) [ER-P-72, 3-(1-(N-(2-(4-((1R,2S)-6-hydroxy-2-phenyl-1,2,3,4-tetrahydronaphthalen-1-yl)phenyl)-2-azaspiro[3.5]nonan-7-yl)-N-methylglycyl)-6"-oxo-6",8"-dihydro-2"H,7"H-dipyridole[azetidine-3,1'-cyclohexane-4',3"-furo[2,3-e]isoindol]-7"-yl)piperidine-2,6-dione] |  |  | 14300 | 1.34
6 | Cn1c(=O)n(C2CCC(=O)NC2=O)c2ccc3c(c21)OCC31CCN(C(=O)CN2CCC3(CCN(c4ccc([C@@H]5c6ccc(O)cc6CC[C@@H]5c5ccccc5)cc4)CC3)C2)CC1 (stereo partly drawn) [ER-P-68, 3-(1'-(2-(8-(4-((1R,2S)-6-hydroxy-2-phenyl-1,2,3,4-tetrahydronaphthalen-1-yl)phenyl)-2,8-diazaspiro[4.5]decan-2-yl)acetyl)-1-methyl-2-oxo-1,2-dihydro-3H,7H-spiro[benzofuro[6,7-d]imidazole-6,4'-piperidin]-3-yl)piperidine-2,6-dione] |  |  | 8.27 | 1.18
7 | O=C1CCC(NC(=O)c2cc3c(cc2F)OC2(CC3)CCN(CC3CCC(OC4CCN(c5ccc(C6c7ccc(O)cc7CCC6c6ccccc6)cc5)CC4)CC3)CC2)C(=O)N1 [ER-P-89, N-((S)-2,6-dioxopiperidin-3-yl)-7-fluoro-1'-(((1S,4s)-4-((1-(4-((1R,2S)-6-hydroxy-2-phenyl-1,2,3,4-tetrahydronaphthalen-1-yl)phenyl)piperidin-4-yl)oxy)cyclohexyl)methyl)spiro[chromane-2,4'-piperidine]-6-carboxamide] |  |  | 2740 | 104
8 | Cn1c(=O)n(C2CCC(=O)NC2=O)c2ccc3c(c21)OCC31CCN(CC2CCN(c3ccc([C@@H]4c5ccc(O)cc5CC[C@@H]4c4ccccc4)cc3)CC2)CC1 (stereo partly drawn) [ER-P-73, 3-(1'-((1-(4-((1R,2S)-6-hydroxy-2-phenyl-1,2,3,4-tetrahydronaphthalen-1-yl)phenyl)piperidin-4-yl)methyl)-1-methyl-2-oxo-1,2-dihydro-3H,7H-spiro[benzofuro[6,7-d]imidazole-6,4'-piperidin]-3-yl)piperidine-2,6-dione] |  |  | 3270 | 49.4
9 | CN(CC(=O)N1CCC2(CC1)COc1c2ccc2c1n(C)c(=O)n2C1CCC(=O)NC1=O)CC1CCN(c2ccc([C@@H]3c4ccc(O)cc4CC[C@@H]3c3ccccc3)cc2)CC1 (stereo partly drawn) [ER-P-75, 3-(1'-(N-((1-(4-((1R,2S)-6-hydroxy-2-phenyl-1,2,3,4-tetrahydronaphthalen-1-yl)phenyl)piperidin-4-yl)methyl)-N-methylglycyl)-1-methyl-2-oxo-1,2-dihydro-3H,7H-spiro[benzofuro[6,7-d]imidazole-6,4'-piperidin]-3-yl)piperidine-2,6-dione] |  |  | 3000 | 1.16
10 | O=C1CCC(NC(=O)c2cc3c(cc2F)C2(CCN(CC4CCC(OC5CCN(c6ccc(C7c8ccc(O)cc8CCC7c7ccccc7)cc6)CC5)CC4)CC2)CO3)C(=O)N1 [ER-P-87, N-((S)-2,6-dioxopiperidin-3-yl)-5-fluoro-1'-(((1S,4R)-4-((1-(4-((1R,2S)-6-hydroxy-2-phenyl-1,2,3,4-tetrahydronaphthalen-1-yl)phenyl)piperidin-4-yl)oxy)cyclohexyl)methyl)-2H-spiro[benzofuran-3,4'-piperidine]-6-carboxamide] |  |  | 4000 | 53
11 | CN(CC(=O)N1CCC2(CC1)CCC1(CC2)COc2c1ccc1c2CN(C2CCC(=O)NC2=O)C1=O)C1CCC2(CC1)CN(c1ccc([C@@H]3c4ccc(O)cc4CC[C@@H]3c3ccccc3)cc1)C2 (stereo partly drawn) [ER-P-71, 3-(1"-(N-(2-(4-((1R,2S)-6-hydroxy-2-phenyl-1,2,3,4-tetrahydronaphthalen-1-yl)phenyl)-2-azaspiro[3.5]nonan-7-yl)-N-methylglycyl)-6-oxo-6,8-dihydro-2H,7H-dipyridole[furo[2,3-e]isoindole-3,1'-cyclohexane-4',4"-piperidin]-7-yl)piperidine-2,6-dione] |  |  | 2020 | 8.54
12 | O=C1CCC(N2Cc3c(ccc4c3OCC43CCC4(CCN(C(=O)C5CCN(c6ccc([C@@H]7c8ccc(O)cc8CC[C@@H]7c7ccccc7)cc6)CC5)CC4)CC3)C2=O)C(=O)N1 (stereo partly drawn) [ER-P-76, 3-(1"-(1-(4-((1R,2S)-6-hydroxy-2-phenyl-1,2,3,4-tetrahydronaphthalen-1-yl)phenyl)piperidine-4-carbonyl)-6-oxo-6,8-dihydro-2H,7H-dipyridole[furo[2,3-e]isoindole-3,1'-cyclohexane-4',4"-piperidin]-7-yl)piperidine-2,6-dione] |  |  | > 100000 | 5.75
13 | Cn1c(=O)n(C2CCC(=O)NC2=O)c2ccc3c(c21)OCC31CCN(C(=O)C2CCN(CC3CCN(c4ccc([C@@H]5c6ccc(O)cc6CC[C@@H]5c5ccccc5)cc4)CC3)CC2)CC1 (some centres unmarked) [ER-P-74] |  |  | 2100 | 1.22
